Earlier results, collected in patent US20250360113A1, “ADMINISTRATION OF DHB TO INCREASE BENEFIT OF LOSING WEIGHT OF INTERMITTENT FASTING” (NANJING NUTRABUILDING BIO-TECH CO., LTD., priority 2023, published 2025).

Experiments:
brown adipocyte = details: by increasing transcription of PRDM16 via AMPK activation and PGC-1α recruitment; cited from earlier work
[1] = obese db/db mice; cited from earlier work

Structure (SMILES): COc1ccc2cc3[n+](cc2c1OC)CCc1cc2c(cc1-3)OCO2 [BBR, berberine]
- brown adipocyte differentiation and brown adipose tissues (BAT) thermogenesis (brown adipocyte): promote
- energy expenditure and adaptive thermogenesis [1]: increase
- thermogenic program in BAT [1]: promote
- weight gain [1]: reduce
